Laboratory results reported in patent publication US20020091086A1, “Peptides that block viral infectivity and methods of use thereof” (priority 1999, published 2002).
Where “and” joins values, the source holds several entries; their conditions need not be identical. Identical values can stand only once. Peptide text beside a SMILES is read from it.

Assays:
[1] = stability in human plasma by thin layer chromatography; assay type: in vitro ADME; details: 37° C.; 30 minutes, two hours, eight hours
Description: The stability of GPG-NH2 in human plasma was also assessed chemically by thin layer chromatography (TLC). (See FIG. 7). In this experiment, ^14C GPG-NH2 was incubated with human plasma at 37° C. for 30 minutes, two hours, or eight hours and then the proteins were separated by TLC and were visualized by exposure of the chromatograph to autoradiography film. As shown in FIG. 7 (lanes Hp0, Hp0.5, Hp2, and Hp8), a slight shift in mobility of the small peptide was observed. […] Mass-spectrometry analysis (electrospray analysis) of the TLC spots verified that all spots, including the spot with increased mobility, were GPG-NH2.

HIV-1 SF-2 virus strain = assay: stability in human blood and plasma by HIV-1 replication assay in HUT78 cells; assay type: in vitro ADME; details: incubated 1, 2 and 4 hours at 37° C. in human blood or plasma; final 20 μM or 100 μM; p24 day 7 and 14
Description: This example describes several studies that were performed to access the stability of small peptides in human blood and plasma. Accordingly, human blood was taken freshly and treated with EDTA. Plasma was separated by centrifuging at 2,500 rpm for 20 minutes. GPG-NH2 was added into blood or plasma at concentrations of 10 mM or 50 mM followed by incubation in 37° C. for 1, 2 and 4 hours, respectively. […] After incubation in 37° C., the GPG-NH2 containing blood was centrifuged at 2,500 rpm for 20 minutes to isolate plasma. Some of the plasma samples were treated with CaCl2 at concentration of 5 mM in 37° C. for 10 minutes followed by centrifuging at 13,000 rpm for 30 minutes and the supernatant are referred to as CaCl2 treated plasma. Then all the GPG-NH2 containing plasma samples were diluted in RPMI medium to give the final concentrations 20 μM or 100 μM of GPG-NH2 (500 fold dilutions) and were then used in HIV-1 replication assays.
The replication assays were performed on HUT78 cells and the HIV-1 SF-2 virus strain was used. Briefly, approximately 200,000 cells were resuspended in the diluted GPG-amide containing medium, plasma, or plasma from blood. The GPG-NH2 containing medium, plasma, or plasma from blood was incubated with the cells for either 1 hr, 2 hr, or 4 hr at 37° C. Subsequently, SF-2 virus was added at 25 TCID50. […]

[2] = in vivo uptake, distribution and elimination of 14C GPG-NH2 in rats
Description: Further, the in vivo uptake of small peptides was analyzed in rats. Rats were fed ^14C GPG-NH2 and, after various time points, blood, urine, and tissue samples were collected from the animals. Samples of rat urine taken eight hours after feeding and rat plasma taken 30 minutes, two hours, and eight hours after feeding were separated on a TLC plate, as shown in FIG. 7 (designated urine8, rp0.5, rp2, and rp^8, accordingly). All the tissues were kept in −20° C. after necropsy before any assay was performed. […] of the tissue samples were collected from three different locations of each organ analyzed and the organ tissue was subsequently dissolved in 250 μl of tissue solublizer (OptiSolv, LKB-Wallac) at 45° C. for four to six hours. The homogenized tissue solutions were decolorized by the addition of 50 μl of 30% H2O2 and 100 μl of isopropanol before 3 ml of 0.05M HCl acidified scintillation cocktail (Luma Gel, Lumac/3M) was added. The radioactivity was determined with a beta scintillation counter (LKB-Wallac 1218 Rack Beta). The free/unbound GPG-NH2 in the plasma was collected by precipitation with one part of plasma and two parts of ethanol followed by incubation at −70° C. for one hour and centrifugation at 20,000×g for 15 min at 4° C. Blood cell samples were diluted with PBS (in the ratio of 2 parts of blood cells to 1 part of PBS) before 10 μl of the mixture was sampled and analyzed as the tissue samples. Five to 20 μl of plasma and urine samples were directly mixed with 3 ml of Ready Safe (Beckman) fluid before quantification. The values are expressed in nCi.
The calculation of the maximum uptake was determined as follows. The total feeding was 800 μCi/kg rat body weight (160 μCi in total per animal). On the assumption that the GPG-NH2 and its metabolities were evenly distributed in the body, the GPG-NH2 present in tissues would be the average counts/g from different tissues from the total number of animals studied divided by the total number of animals and multiplied by the body weight and the factor 0.9. This factor is derived to omit the blood volume since an estimate of blood volume is roughly 10% of the average body weight. For example (from the data of animals 1-5), if the total body weight for five rats was […] and the radioactivity detected from various tissues was (35+466+495+366+331) or 1,693 nCi and the radioactivity detected from blood was (93+130) or 223 nCi and the radioactivity detected in urine was 4, 015 nCi, the maximal intake of the small peptide can be calculated as: […]
In FIG. 9, the distribution of radioactivity between blood cells, plasma protein bound, as well as, non protein bound (free) plasma radioactivity is shown. The elimination of radioactivity from the plasma fraction is depicted in FIG. 10. […] Protein bound radioactivity was assayed after precipitation with two parts of 99.5% ethanol. From the uptake and distribution data and the TLC data above, the minimal uptake of intact GPG-NH2 recovered from the plasma was calculated and, in one hour after feeding of the rats, at least 1% of fed GPG-NH2 could be recovered as protein free GPG-NH2 in the plasma.

[3] = rats fed 14C GPG-NH2 800 μCi/kg, sacrificed after 4 hours, avg of animals 1-5
[4] = rats fed 14C GPG-NH2 800 μCi/kg, sacrificed after 8 hours, avg of animals 6-10
[5] = rats fed 14C GPG-NH2 800 μCi/kg, sacrificed after 8 hours, individual animals 6-10

In the case of `NCC(=O)N1CCC[C@H]1C(=O)NCC(N)=O` [GPG-NH2, glycyl-prolyl-glycine amide] (H-Gly-Pro-Gly-NH2), the “TLC mobility after incubation in human plasma” value [1] is reported as “no further change in mobility was observed at up to 8 hours”, the “ability to inhibit HIV-1 after incubation in medium, plasma or blood” value (HIV-1 SF-2 virus strain) is reported as “No significant difference” and the “radioactivity in urine (used for uptake calculation)” value ([2]; animals 1-5, 4 hours) is reported as 4,015 nCi. The “radioactivity present in blood (calculated)” value ([2]; animals 1-5, 4 hours, body weight 207 g, factor 0.1) was “blood (93 + 130) * 207 * 0.1 = 4,642 nCi”, the “radioactivity present in tissue (whole body, calculated)” value ([2]; animals 1-5, 4 hours, body weight 207 g, factor 0.9) was “(35 + 466 + 495 + 366 + 331)/5 * 207 * 0.9 = 63,240 nCi” and the “change of radioactivity in the urine” value ([2]; between hours 4 and 8) was “double”. The “portion of urine radioactivity that was intact GPG-NH2” value ([2]; electrospray mass spectrometry of TLC spot) was “only a small portion”, the “fed GPG-NH2 recovered as protein free GPG-NH2 in the plasma” value ([2]; one hour after feeding of the rats) was “at least 1%” and the maximal uptake ([2]; oral feeding 800 μCi/kg, animals 1-5, 4 hours) was “(63.24 + 4.642 + 4.015)/800 * 0.207 = 0.4342, or 43% maximal”. The “radioactivity in Blood cells, avg” value [2, 3] was 93 nCi/ml or g tissue, the “radioactivity in Brain, avg” value [2, 3] was 35 nCi/ml or g tissue and the “radioactivity in Kidneys, avg” value [2, 3] was 466 nCi/ml or g tissue. The “radioactivity in Liver, avg” value [2, 3] was 495 nCi/ml or g tissue, the “radioactivity in Plasma, avg” value [2, 3] was 130 nCi/ml or g tissue and the “radioactivity in Spleen, avg” value [2, 3] was 366 nCi/ml or g tissue. The “radioactivity in Thymus, avg” value [2, 3] was 331 nCi/ml or g tissue, the “radioactivity in Total urine, avg” value [2, 3] was 4,015 nCi/ml or g tissue and the “radioactivity in Urine, avg” value [2, 3] was 5,660 nCi/ml or g tissue. For the same molecule, the “radioactivity in Blood cells, avg” value [2, 4] was 78 nCi, the “radioactivity in Brain, avg” value [2, 4] was 30 nCi and the “radioactivity in Kidneys, avg” value [2, 4] was 415 nCi. For the same molecule, the “radioactivity in Liver, avg” value [2, 4] was 494 nCi, the “radioactivity in Plasma, avg” value [2, 4] was 135 nCi and the “radioactivity in Spleen, avg” value [2, 4] was 293 nCi. For the same molecule, the “radioactivity in Thymus, avg” value [2, 4] was 334 nCi, the “radioactivity in Total urine, avg” value [2, 4] was 8,426 nCi and the “radioactivity in Urine, avg” value [2, 4] was 3,525 nCi. For the same molecule, the “radioactivity in Blood cells” value [2, 5] was 51 nCi and 72 nCi and 87 nCi and 71 nCi and 108 nCi, the “radioactivity in Brain” value [2, 5] was 43 nCi and 27 nCi and 28 nCi and 25 nCi and 29 nCi and the “radioactivity in Kidneys” value [2, 5] was 255 nCi and 488 nCi and 461 nCi and 401 nCi and 468 nCi. The “radioactivity in Liver” value [2, 5] was 537 nCi and 419 nCi and 478 nCi and 458 nCi and 578 nCi, the “radioactivity in Plasma” value [2, 5] was 138 nCi and 123 nCi and 135 nCi and 129 nCi and 148 nCi and the “radioactivity in Spleen” value [2, 5] was 307 nCi and 281 nCi and 257 nCi and 336 nCi and 285 nCi. For the same molecule, the “radioactivity in Thymus” value [2, 5] was 340 nCi and 350 nCi and 323 nCi and 349 nCi and 311 nCi, the “radioactivity in Total urine” value [2, 5] was 6,463 nCi and 6,653 nCi and 11,173 nCi and 10,227 nCi and 7,613 nCi and the “radioactivity in Urine” value [2, 5] was 2,992 nCi and 5,040 nCi and 3,121 nCi and 4,297 nCi and 2,175 nCi. The “relative distribution of retained/immobilized GPG-NH2 and its metabolites in sampled tissues” value ([2]; rats, oral) was “highest in the liver followed by the kidney, followed by the spleen, followed by the thymus, followed by the brain”.
